Test results from ChEMBL document CHEMBL1833797, “Microwave assisted synthesis and antimicrobial evaluation of new fused pyran derivatives bearing 2-morpholinoquinoline nucleus” (2011).
Converted amounts (≈) assume the structure as drawn.

How the values were obtained:
[1] = system: Streptococcus pneumoniae; test: Antimicrobial activity against Streptococcus pneumoniae MTCC 1936 for 24 hrs by microdilution method; format: functional; settings: MTCC 1936, 24 h
[2] = system: Clostridium tetani; test: Antimicrobial activity against Clostridium tetani MTCC 449 for 24 hrs by microdilution method; format: functional; settings: MTCC 449, 24 h
[3] = system: Bacillus subtilis; test: Antimicrobial activity against Bacillus subtilis MTCC 441 for 24 hrs by microdilution method; format: functional; settings: MTCC 441, 24 h
[4] = system: Salmonella typhi; test: Antimicrobial activity against Salmonella typhi MTCC 98 for 24 hrs by microdilution method; format: functional, Salmonella enterica subsp. enterica serovar Typhi; settings: Salmonella enterica, MTCC 98, 24 h
[5] = system: Vibrio cholerae; test: Antimicrobial activity against Vibrio cholerae MTCC 3906 for 24 hrs by microdilution method; format: functional; settings: MTCC 3906, 24 h
[6] = system: Escherichia coli; test: Antimicrobial activity against Escherichia coli MTCC 443 for 24 hrs by microdilution method; format: functional; settings: MTCC 443, 24 h
[7] = system: Aspergillus fumigatus; test: Antifungal activity against Aspergillus fumigatus MTCC 3008 for 48 hrs by microdilution method; format: functional; settings: MTCC 3008, 48 h
[8] = system: Candida albicans; test: Antifungal activity against Candida albicans MTCC 227 for 48 hrs by microdilution method; format: functional; settings: MTCC 227, 48 h

Work on `COc1ccc2nc(N3CCOCC3)c(C3C(C#N)=C(N)Oc4c3c(=O)oc3ccccc43)cc2c1` (stereo not drawn) yielded an MIC [1] of 200 µg/mL (≈ 415 µM), an MIC [2] of 500 µg/mL (≈ 1040 µM) and an MIC [3] of 200 µg/mL (≈ 415 µM). It also gave an MIC [4] of 500 µg/mL (≈ 1040 µM), an MIC [5] of 500 µg/mL (≈ 1040 µM) and an MIC [6] of 500 µg/mL (≈ 1040 µM). It also gave an MIC [7] of 1000 µg/mL (≈ 2070 µM) and an MIC [8] of 200 µg/mL (≈ 415 µM).

With `Cc1ccc2nc(N3CCOCC3)c(C3C(C#N)=C(N)Oc4c3c(=O)oc3ccccc43)cc2c1` (stereo not drawn) the MIC [1] was 500 µg/mL (≈ 1070 µM), the MIC [2] was 250 µg/mL (≈ 536 µM) and the MIC [3] was 500 µg/mL (≈ 1070 µM). It also gave an MIC [4] of 250 µg/mL (≈ 536 µM), an MIC [5] of 12.5 µg/mL (≈ 26.8 µM) and an MIC [6] of 250 µg/mL (≈ 536 µM). It also gave an MIC [7] of 500 µg/mL (≈ 1070 µM) and an MIC [8] of 500 µg/mL (≈ 1070 µM).

Molecule `N#CC1=C(N)Oc2c(ccc3ccccc23)C1c1cc2ccccc2nc1N1CCOCC1` (stereo not drawn) has an MIC [1] of 500 µg/mL (≈ 1150 µM), an MIC [2] of 250 µg/mL (≈ 575 µM) and an MIC [3] of 250 µg/mL (≈ 575 µM). For the same molecule, the MIC [4] was 500 µg/mL (≈ 1150 µM), the MIC [5] was 500 µg/mL (≈ 1150 µM) and the MIC [6] was 500 µg/mL (≈ 1150 µM). The MIC [7] was over 1000 µg/mL and the MIC [8] was 500 µg/mL (≈ 1150 µM).

`CC1(C)S[C@@H]2[C@H](NC(=O)[C@H](N)c3ccccc3)C(=O)N2[C@H]1C(=O)O` [AMPICILLIN] gave an MIC [1] of 100 µg/mL (≈ 286 µM), an MIC [2] of 250 µg/mL (≈ 715 µM) and an MIC [3] of 250 µg/mL (≈ 715 µM). For the same molecule, the MIC [4] was 100 µg/mL (≈ 286 µM), the MIC [5] was 100 µg/mL (≈ 286 µM) and the MIC [6] was 100 µg/mL (≈ 286 µM).

In the case of `COC1=CC(=O)C[C@@H](C)[C@]12Oc1c(Cl)c(OC)cc(OC)c1C2=O` [GRISEOFULVIN], the MIC [7] is reported as 100 µg/mL (≈ 283 µM) and the MIC [8] is reported as 500 µg/mL (≈ 1420 µM).

Work on `N#CC1=C(N)Oc2cc(O)ccc2C1c1cc2ccccc2nc1N1CCOCC1` (stereo not drawn) yielded an MIC [1] of 250 µg/mL (≈ 624 µM), an MIC [2] of 250 µg/mL (≈ 624 µM) and an MIC [3] of 250 µg/mL (≈ 624 µM). The MIC [4] was 200 µg/mL (≈ 499 µM), the MIC [5] was 250 µg/mL (≈ 624 µM) and the MIC [6] was 100 µg/mL (≈ 250 µM). It also gave an MIC [7] of over 1000 µg/mL and an MIC [8] of 1000 µg/mL (≈ 2500 µM).

`Cc1ccc2nc(N3CCOCC3)c(C3C(C#N)=C(N)OC4=C3C(=O)CC(C)(C)C4)cc2c1` (stereo not drawn) gave an MIC [1] of 25 µg/mL (≈ 56.2 µM), an MIC [2] of 500 µg/mL (≈ 1120 µM) and an MIC [3] of 200 µg/mL (≈ 450 µM). It also gave an MIC [4] of 250 µg/mL (≈ 562 µM), an MIC [5] of 250 µg/mL (≈ 562 µM) and an MIC [6] of 200 µg/mL (≈ 450 µM). The MIC [7] was 1000 µg/mL (≈ 2250 µM) and the MIC [8] was 250 µg/mL (≈ 562 µM).

`COc1ccc2nc(N3CCOCC3)c(C3C(C#N)=C(N)OC4=C3C(=O)c3ccccc3C4=O)cc2c1` (stereo not drawn) was tested, and the MIC [1] was 200 µg/mL (≈ 404 µM), the MIC [2] was 100 µg/mL (≈ 202 µM) and the MIC [3] was 200 µg/mL (≈ 404 µM). For the same molecule, the MIC [4] was 200 µg/mL (≈ 404 µM), the MIC [5] was 250 µg/mL (≈ 506 µM) and the MIC [6] was 100 µg/mL (≈ 202 µM). For the same molecule, the MIC [7] was 1000 µg/mL (≈ 2020 µM) and the MIC [8] was over 1000 µg/mL.

In the case of `Cc1ccc2nc(N3CCOCC3)c(C3C(C#N)=C(N)Oc4[nH]nc(C)c43)cc2c1` (stereo not drawn), the MIC [1] is reported as 200 µg/mL (≈ 497 µM), the MIC [2] is reported as 250 µg/mL (≈ 621 µM) and the MIC [3] is reported as 200 µg/mL (≈ 497 µM). For the same molecule, the MIC [4] was 250 µg/mL (≈ 621 µM), the MIC [5] was 250 µg/mL (≈ 621 µM) and the MIC [6] was 200 µg/mL (≈ 497 µM). For the same molecule, the MIC [7] was 1000 µg/mL (≈ 2480 µM) and the MIC [8] was 1000 µg/mL (≈ 2480 µM).

With `O=C(O)c1cn(C2CC2)c2cc(N3CCNCC3)c(F)cc2c1=O` [CIPROFLOXACIN] the MIC [1] was 50 µg/mL (≈ 151 µM), the MIC [4] was 25 µg/mL (≈ 75.4 µM) and the MIC [5] was 25 µg/mL (≈ 75.4 µM). For the same molecule, the MIC [6] was 25 µg/mL (≈ 75.4 µM).

Work on `Cc1n[nH]c2c1C(c1cc3ccccc3nc1N1CCOCC1)C(C#N)=C(N)O2` (stereo not drawn) yielded an MIC [1] of 250 µg/mL (≈ 644 µM), an MIC [2] of 100 µg/mL (≈ 257 µM) and an MIC [3] of 250 µg/mL (≈ 644 µM). It also gave an MIC [4] of 100 µg/mL (≈ 257 µM), an MIC [5] of 200 µg/mL (≈ 515 µM) and an MIC [6] of 62.5 µg/mL (≈ 161 µM). The MIC [7] was 1000 µg/mL (≈ 2570 µM) and the MIC [8] was 1000 µg/mL (≈ 2570 µM).

`Cc1ccc2nc(N3CCOCC3)c(C3C(C#N)=C(N)OC4=C3C(=O)CCC4)cc2c1` (stereo not drawn) was tested, and the MIC [1] was 100 µg/mL (≈ 240 µM), the MIC [2] was 200 µg/mL (≈ 480 µM) and the MIC [3] was 200 µg/mL (≈ 480 µM). For the same molecule, the MIC [4] was 200 µg/mL (≈ 480 µM), the MIC [5] was 200 µg/mL (≈ 480 µM) and the MIC [6] was 200 µg/mL (≈ 480 µM). It also gave an MIC [7] of over 1000 µg/mL and an MIC [8] of 1000 µg/mL (≈ 2400 µM).

For `Cc1ccc2nc(N3CCOCC3)c(C3C(C#N)=C(N)Oc4cc(O)ccc43)cc2c1` (stereo not drawn), the MIC [1] was 500 µg/mL (≈ 1210 µM), the MIC [2] was 200 µg/mL (≈ 483 µM) and the MIC [3] was 500 µg/mL (≈ 1210 µM). The MIC [4] was 200 µg/mL (≈ 483 µM), the MIC [5] was 200 µg/mL (≈ 483 µM) and the MIC [6] was 200 µg/mL (≈ 483 µM). It also gave an MIC [7] of over 1000 µg/mL and an MIC [8] of over 1000 µg/mL.

With `COc1ccc2nc(N3CCOCC3)c(C3C(C#N)=C(N)Oc4[nH]nc(C)c43)cc2c1` (stereo not drawn) the MIC [1] was 200 µg/mL (≈ 478 µM), the MIC [2] was 250 µg/mL (≈ 597 µM) and the MIC [3] was 200 µg/mL (≈ 478 µM). It also gave an MIC [4] of 250 µg/mL (≈ 597 µM), an MIC [5] of 250 µg/mL (≈ 597 µM) and an MIC [6] of 250 µg/mL (≈ 597 µM). The MIC [7] was 500 µg/mL (≈ 1190 µM) and the MIC [8] was 250 µg/mL (≈ 597 µM).

`COc1ccc2nc(N3CCOCC3)c(C3C(C#N)=C(N)Oc4cc(O)ccc43)cc2c1` (stereo not drawn) was tested, and the MIC [1] was 12.5 µg/mL (≈ 29 µM), the MIC [2] was 250 µg/mL (≈ 581 µM) and the MIC [3] was 200 µg/mL (≈ 465 µM). The MIC [4] was 250 µg/mL (≈ 581 µM), the MIC [5] was 250 µg/mL (≈ 581 µM) and the MIC [6] was 250 µg/mL (≈ 581 µM). It also gave an MIC [7] of 500 µg/mL (≈ 1160 µM) and an MIC [8] of 500 µg/mL (≈ 1160 µM).
